Test results from US11180530B2, “Salt of phenylpropionamide derivative and preparation method therefor” (priority 2017, dated 2021).
Read-outs that look alike come from different tables or passages of the source. Where a SMILES comes first, the peptide text is derived from it. [ ]: non-standard residue; d: D form. The star is where a group is joined. Gly(N-(2R-Ph-propyl)) = C[C@@H](CNCC(=O)O)c1ccccc1; Piperidin1yl(4-NH2,4-COOH) = NC1(C(=O)O)CCN(*)CC1

Experiments:
[1] = format: physicochemical
Description: Samples of acetate, hydrochloride, citrate and phosphate of the compound represented by formula (I) were subjected to a long-term accelerated stability investigation for 6 months under dark and sealed conditions (the inner package is a medicinal low-density polyethylene composite film and the outer package is aluminum foil), humidity (60% RH), temperature (4° C., 25° C.) and with/without nitrogen protection.

[2] = format: physicochemical; settings: for Stability (conclusion in words): illumination and high temperature
Description: Samples of the compound represented by formula (I) and acetate, hydrochloride, citrate and phosphate of the compound represented by formula (I) were respectively placed open and evenly spread, so that the stability of the samples were investigated under the conditions of room temperature, heating (40° C., 60° C.), illumination (4500Lux) and high humidity (RH75% and RH90%). The sampling period is 20 days.

[3] = test system: inflammatory pain induced by carrageenan in rats; assay: Carrageenan inflammatory pain model, plantar tenderness (Electronic Von Frey); format: in vivo, Wistar rats; settings: for tenderness threshold: 30 min before test, model group 7.6 g
Description: Male Wistar rats for experiment purchased from Shanghai Slack Experimental Animal Co, Ltd. (Shanghai, China, certificate No. 2015000513408, license SOCK (Shanghai) 2012-0002, 150-180 g at the time of purchase, 5 rats/cage, 12/12 hour light/dark cycle adjustment, constant temperature of 23±1° C., humidity of 50-60%, free intake of water. After the animals were purchased, they were reared for more than 7 days to start the experiment.
1% λ-carrageenan mixed with physiological saline and stirred overnight, forming a jelly suspension.
The experimental method was improved according to the method in document 1 (Kazunari Nakao et al.). Before the inflammatory pain experiment, rats were randomly divided into the following groups according to body weight: blank control group, model group, 0.1 mg/kg group and 0.3 mg/kg group. There were 8 rats in each group. Inflammatory pain model was established by subcutaneous injection of 1% carrageenan (100 μl) into the foot pad of Wistar rats. After 4 hours, the rats were tested for plantar tenderness to evaluate their mechanical pain threshold, the rats were administrated single caudal vein administration (1 ml/kg) 30 min before the test, and the control group and model group were given the corresponding solvents.
Electronic Von Frey: UGO BASILE, type 38450.
The experimental data were expressed by Mean±standard deviation (S.D.). Statistical comparison was carried out with Excel software T test.

[4] = Solubility (salt formation research); format: physicochemical
[5] = Canine pharmacokinetic test, intravenous administration; format: in vivo; settings: Beagle dogs
Excerpt: Beagle dogs were used as test animals, and LC/MS/MS methods were used to determine the drug concentration in plasma of Beagle dogs at different time points after intravenous administration of the compound represented by formula (I). To study the pharmacokinetic behavior of the compound of the present invention in Beagle dogs and evaluate its pharmacokinetic characteristics.
3 male beagle dogs provided by Medicilon Pharmaceutical Technology (Shanghai) Co, Ltd in each group.
A proper amount of sample was weighted and 100% normal saline was added for dissolution.
Beagle dogs 3, male, for one group; intravenous administration with a volume of 2 ml/kg after fasting for one night.
For the intravenous administration group, 1.0 ml of blood was collected from jugular vein before and 5 mins, 15 mins, 0.5, 1.0, 2.0, 4.0, 8.0, 12.0, 24.0 hrs after administration, then placed in a heparinized test tube, centrifuged at 3500 rpm for 10 mins to separate plasma, and stored at −80° C.
LC/MS/MS method was used to determine the content of compound in Beagle dog plasma after intravenous administration.

[6] = 25° C., 60% RH, nitrogen protection, 1 month
[7] = 25° C., 60% RH, nitrogen protection, 3 months
[8] = 25° C., 60% RH, nitrogen protection, 6 months
[9] = 25° C., 60% RH, nitrogen protection, initial

SMILES	Purity % ([1]; 4° C., 1 month)	Purity % ([1]; 4° C., 3 months)	Purity % ([1]; 4° C., 6 months)	Purity % ([1]; 4° C., initial)	Purity % [1, 6]	Purity % [1, 7]	Purity % [1, 8]	Purity % [1, 9]	Purity % ([1]; 25° C., 60% Rh, 1 month)	Purity % ([1]; 25° C., 60% Rh, 3 months)	Purity % ([1]; 25° C., 60% Rh, 6 months)	Purity % ([1]; 25° C., 60% Rh, initial)	Purity % ([2]; 4500 Lux, 0 days (initial))	Purity % ([2]; 4500 Lux, 5 days)	Purity % ([2]; 4500 Lux, 10 days)	Purity % ([2]; 4500 Lux, 20 days)	other results
CC(C)C[C@@H](NC(=O)[C@@H](Cc1ccccc1)NC(=O)CNC[C@H](C)c1ccccc1)C(=O)N[C@H](CCCCN)C(=O)N1CCC(N)(C(=O)O)CC1 [Embodiment 9, 4-amino-1-((2R,5R,8R,14R)-2-(4-aminobutyl)-8-benzyl-5-isobutyl-4,7,10-trioxo-14-phenyl-3,6,9,12-tetraazapentadecan-1-acyl)piperidine-4-carboxylic acid] (H-[Gly(N-(2R-Ph-propyl))][dF][dL][dK]-{Piperidin1yl(4-NH2,4-COOH)})	99.51%	99.51%	98.57%	99.54%	99.52%	99.50%	98.54%	99.54%	99.46%	99.51%	99.51%	99.54%	96.50%	95.57%	94.27%	94.24%	Aspect ([1]; 4° C., 1 month): White; Aspect ([1]; 4° C., 3 months): White; Aspect ([1]; 4° C., 6 months): White; Aspect ([1]; 4° C., initial): White
CC(C)C[C@@H](NC(=O)[C@@H](Cc1ccccc1)NC(=O)CNC[C@H](C)c1ccccc1)C(=O)N[C@H](CCCCN)C(=O)N1CCC(N)(C(=O)O)CC1 [Embodiment 15, 4-amino-1-((2R,5R,8R,14R)-2-(4-aminobutyl)-8-benzyl-5-isobutyl-4,7,10-trioxo-14-phenyl-3,6,9,12-tetraazapentadecan-1-acyl)piperidine-4-carboxylic acid] (H-[Gly(N-(2R-Ph-propyl))][dF][dL][dK]-{Piperidin1yl(4-NH2,4-COOH)})	99.63%	99.62%	99.66%	99.64%	9.65%	99.62%	99.63%	99.64%	99.64%	99.63%	99.64%	99.64%	96.32%	96.07%	95.62%	95.76%	–
CC(C)C[C@@H](NC(=O)[C@@H](Cc1ccccc1)NC(=O)CNC[C@H](C)c1ccccc1)C(=O)N[C@H](CCCCN)C(=O)N1CCC(N)(C(=O)O)CC1 [Embodiment 20, 4-amino-1-((2R,5R,8R,14R)-2-(4-aminobutyl)-8-benzyl-5-isobutyl-4,7,10-trioxo-14-phenyl-3,6,9,12-tetraazapentadecan-1-acyl)piperidine-4-carboxylic acid] (H-[Gly(N-(2R-Ph-propyl))][dF][dL][dK]-{Piperidin1yl(4-NH2,4-COOH)})	–	–	–	–	–	–	–	–	–	–	–	–	99.68%	97.76%	97.72%	97.15%	Purity % ([2]; 40° C., 5 days): 97.60%; Stability (conclusion in words) ([2]; 20 days, listed as free state): degraded greatly; increase range of tenderness threshold compared with the model group ([3]; 0.1 mg/kg i.v.): 79.5%; tenderness threshold ([3]; 0.1 mg/kg i.v. single): 13.7 g; increase range of tenderness threshold compared with the model group ([3]; 0.3 mg/kg i.v.): 204.5%; tenderness threshold ([3]; 0.3 mg/kg i.v. single): 23.2 g; solubility (in words) [4]: low; pharmacokinetic properties (in words) [5]: good
CC(C)C[C@@H](NC(=O)[C@@H](Cc1ccccc1)NC(=O)CNC[C@H](C)c1ccccc1)C(=O)N[C@H](CCCCN)C(=O)N1CCC(N)(C(=O)O)CC1 [Phosphate (1:3)] (H-[Gly(N-(2R-Ph-propyl))][dF][dL][dK]-{Piperidin1yl(4-NH2,4-COOH)})	–	–	–	–	–	–	–	–	–	–	–	–	–	–	–	–	Long-term stability (conclusion in words) ([1]; 6 months, 4° C., 25° C., 60% RH, with/without nitrogen protection, amorphous samples): stable; Stability (conclusion in words) ([2]; 20 days): relatively stable or slightly degraded
